{"source": "patent US8957056B2", "about": "“Migrastatin analogs in the treatment of cancer” (Sloan-Kettering Instiute for Cancer Research, priority 2004, dated 2015)", "key": {"[1]": {"conditions": "rcm bond, toluene, 0.25 h"}, "HUVEC": {"test_system": "HUVEC", "assay": "Tube formation assay", "assay_type": "cell-based, human", "conditions": "HUVEC on matrigel, 16-18 h, tested concentrations 200, 100, 50, 25, 10 μM", "description": "A protocol was designed based on the instructions from the provider (BD Bioscience, San Jose, Calif.). Briefly, wells of a 48 well culture dish were covert with 150 μL matrigel and the matrigel was gelatinized for 30 min at 37° C. A 80-90% confluent HUVEC (BD Bioscience, San Jose, Calif.) culture was trypsin treated, the detached cells were collected by centrifugation and resuspended in EGM-2 media (BD Bioscience, San Jose, Calif.). Cell concentration was adjusted to 100.000 cells/mL. 400 μL of the cell suspension were filled in the matrigel coated wells, and a solution of the inhibitor was added to the intended final concentration. The plates were incubated at 37° C. with 5% CO2 for 16-18 h. Media was removed, and the matrigel surface was washed twice with 500 μL PBS before cells were labeled with 250 μL 8 μM Calcein AM (Pierce, Rockford, Ill.) in PBS for 30 min at 37° C. After two additional washing steps (500 μL PBS) cells were visualized under an inverted microscope. Fluorescence was excited at 488 nm and recorded at 538 nm. The minimum effect concentration was defined as the minimal inhibitor concentration that caused a definite disturbance of the complexity of the formed tube network."}, "[2]": {"assay": "Mouse blood plasma stability", "description": "The biological evaluation of the compounds (in terms of their ability to inhibit cell migration) was accomplished in a Boyden chamber cell migration assay. In this assay, mouse breast tumor cells (4T1 cells) or endothelial cells (HUVECs) are seeded on the upper chamber of a transwell insert. Growth factor-containing serum is added to the lower chamber.\nIn anticipation of subsequent in vivo evaluation of these compounds and others, preliminary metabolic stability studies were carried out. […] As a test of the ‘deactivation hypothesis’, the hydrolysis product of macrolactone 48 was prepared (Scheme 27) and tested for its activity against tumor cell migration."}, "[3]": {"test_system": "adherent cells (e.g. KYSE-520 cells)", "assay": "Wound healing (scratch) assay, preliminary (Table 2)", "assay_type": "cell-based", "conditions": "28 to 30 h, tested concentrations 200, 100, 50, 25, 10 μM", "description": "The wound healing assay was performed based on the method described by Nakae et al. (Nakae et al., J. Antibiotics (2000), 53, 1130-1136). Briefly, adherent cells were grown in a suitable media to confluence (e.g. KYSE-520 cells in RPMI-1640 with 10% FBS). Cells were starved for 24 h in serum free media A scratch (ca. 0.5 mm) was applied and the cell layer was washed twice with PBS after removal of the media. Fresh, serum free media with the test compound at the desired concentration was added and the cells were incubated for 28 to 30 h at 37° C., 5% CO2. The scratch size was compared to that observed for cells exposed to 100 μM Migrastatin. Test compounds associated with a scratch size equal to or larger than that observed for cells exposed to 100 μM Migrastatin were deemed to have cell migration inhibitory activity at least equal to Migrastatin."}, "[4]": {"test_system": "mouse breast tumor cells (4T1 cells)", "assay": "Boyden chamber cell migration assay, 4T1", "assay_type": "cell-based", "conditions": "for IC50: 4T1 tumor cells, 6-8 hours, read-out: IC50 value, chamber cell migration assay; for inhibitory activity on tumor cell migration: 4T1 chamber assay"}, "[5]": {"test_system": "mouse breast tumor cells (4T1 cells)", "conditions": "chamber assay with mouse breast tumor cells; reported in WO 2004/087672; cited from earlier work"}}, "note": "Where two headings read alike, the source gives them in different places.", "data": [{"smiles": "CO[C@H]1C=CCC/C=C/C(=O)OC/C(C)=C\\[C@@H](C)[C@@H]1O[Si](C)(C)C(C)(C)C", "values": [{"measurement": "ring closure, yield of all isomers", "setting": "[1]; from C=CCC/C=C/C(=O)OC/C(C)=C\\[C@@H](C)[C@H](O[Si](C)(C)C(C)(C)C)[C@H](C=C)OC, Grubbs II, 0.664 mM, 111.0 °C", "result": 55, "unit": "%"}]}, {"smiles": "CO[C@H]1C=CCC/C=C/C(=O)O[C@H]([C@H](C)C(=O)CCCC2CC(=O)NC(=O)C2)/C(C)=C\\[C@@H](C)[C@@H]1O[Si](C)(C)C(C)(C)C", "values": [{"measurement": "ring closure, yield of all isomers", "setting": "[1]; from C=CCC/C=C/C(=O)O[C@@H](/C(C)=C\\[C@@H](C)[C@H](O[Si](C)(C)C(C)(C)C)[C@H](C=C)OC)[C@H](C)C(=O)CCCC1CC(=O)NC(=O)C1, Grubbs II, 0.46 mM, 111.0 °C", "result": 69, "unit": "%"}]}, {"smiles": "CO[C@H]1C=CCCCCC(=O)CC/C(C)=C\\[C@@H](C)[C@@H]1O[Si](C)(C)C(C)(C)C", "values": [{"measurement": "ring closure, yield of all isomers", "setting": "[1]; from C=CCCCCC(=O)CC/C(C)=C\\[C@@H](C)[C@H](O[Si](C)(C)C(C)(C)C)[C@H](C=C)OC, Grubbs-II catalyst, 0.508 mM, 110.0 °C", "result": 81, "unit": "%"}]}, {"smiles": "CO[C@H]1C=CCCCCC(=O)NC/C(C)=C\\[C@@H](C)[C@@H]1O[Si](C)(C)C(C)(C)C", "values": [{"measurement": "ring closure, yield of all isomers", "setting": "[1]; from C=CCCCCC(=O)NC/C(C)=C\\[C@@H](C)[C@H](O[Si](C)(C)C(C)(C)C)[C@H](C=C)OC, Grubbs II, 0.709 mM, 111.0 °C", "result": 60, "unit": "%"}]}, {"smiles": "CO[C@H]1C=CCCCCC(=O)OC/C(C)=C\\[C@@H](C)[C@@H]1O[Si](C)(C)C(C)(C)C", "values": [{"measurement": "ring closure, yield of all isomers", "setting": "[1]; from C=CCCCCC(=O)OC/C(C)=C\\[C@@H](C)[C@H](O[Si](C)(C)C(C)(C)C)[C@H](C=C)OC, Grubbs II, 0.498 mM, 111.0 °C", "result": 76, "unit": "%"}]}, {"smiles": "CO[C@H]1C=CCCCCC(=O)O[C@@H](C(C)C)/C(C)=C\\[C@@H](C)[C@@H]1O", "values": [{"measurement": "ring closure, yield of all isomers", "setting": "[1]; from C=CCCCCC(=O)O[C@H](/C(C)=C\\[C@@H](C)[C@H](O[Si](C)(C)C(C)(C)C)[C@H](C=C)OC)C(C)C, Grubbs-II catalyst, 0.53 mM, 110.0 °C, 2 steps", "result": 65, "unit": "%"}]}, {"smiles": "CO[C@H]1C=CCCCCC(=O)O[C@H]([C@H](C)C(=O)CCCC2CC(=O)NC(=O)C2)/C(C)=C\\[C@@H](C)[C@@H]1O[Si](C)(C)C(C)(C)C", "values": [{"measurement": "ring closure, yield of all isomers", "setting": "[1]; from C=CCCCCC(=O)O[C@@H](/C(C)=C\\[C@@H](C)[C@H](O[Si](C)(C)C(C)(C)C)[C@H](C=C)OC)[C@H](C)C(=O)CCCC1CC(=O)NC(=O)C1, Grubbs II, 0.48 mM, 111.0 °C", "result": 79, "unit": "%"}]}, {"smiles": "COC1C=CCCCCC(=O)OC(C(C)C(=O)CCCC2CC(=O)NC(=O)C2)C(C)=CC(C)C1O", "note": "(stereo not shown) [Compound 41, 2,3-Dihydromigrastatin]", "values": [{"measurement": "Minimum effect concentration", "setting": "HUVEC", "result": 50, "unit": "µM"}, {"measurement": "metabolic stability in mouse blood plasma", "setting": "[2]; mouse, plasma", "result": "completely inert toward lactone opening"}, {"measurement": "Minimum effect concentration", "setting": "[3]", "result": 25, "unit": "µM"}, {"measurement": "IC50", "setting": "[4]", "result": 10, "unit": "µM"}]}, {"smiles": "COC1C=CCCCCC(=O)OC(C(C)C(=O)CCCC2CC(=O)N(C)C(=O)C2)C(C)=CC(C)C1O", "note": "(stereo not shown) [Compound 42, N-Methyl-2,3-Dihydromigrastatin]", "values": [{"measurement": "metabolic stability in mouse blood plasma", "setting": "[2]; mouse, plasma", "result": "completely inert toward lactone opening"}, {"measurement": "IC50", "setting": "[4]", "result": 7, "unit": "µM"}]}, {"smiles": "CO[C@H]1/C=C/CC/C=C/C(=O)OC/C(C)=C\\[C@@H](C)[C@@H]1O", "note": "[Compound 45, Migrastatin Core]", "values": [{"measurement": "Minimum effect concentration", "setting": "HUVEC", "result": 10, "unit": "µM"}, {"measurement": "metabolic stability in mouse blood plasma", "setting": "[2]; test period one hour", "result": "hydrolyzed rapidly"}]}, {"smiles": "CO[C@H]1/C=C/CCCCC(=O)OC/C(C)=C\\[C@@H](C)[C@@H]1OC(C)=O", "note": "[Compound 49, Acetylated Macrolactone]", "values": [{"measurement": "inhibitory activity on tumor cell migration", "setting": "[4]", "result": "reduced by roughly an order of magnitude"}]}, {"smiles": "CO[C@H]1/C=C/CCCCC(=O)OC/C(C)=C\\[C@@H](C)C1=O", "note": "[Compound 50, Oxidized Macrolactone]", "values": [{"measurement": "inhibitory activity on tumor cell migration", "setting": "[4]", "result": "reduced by roughly an order of magnitude"}]}, {"smiles": "CO[C@@H](/C=C/CCCCC(=O)O)[C@@H](O)[C@H](C)/C=C(/C)CO", "note": "[Compound 51, Hydrolyzed Core]", "values": [{"measurement": "IC50", "setting": "[4]; Mus musculus", "result": 0.378, "unit": "µM"}]}, {"smiles": "COC1C=CCCCCC(=O)OC(C(C)C)C(C)=CC(C)C1O", "note": "[Compound 65, (S)-Isopropyl Macrolactone]", "values": [{"measurement": "metabolic stability in mouse blood plasma", "setting": "[2]; mouse, plasma", "result": "no sign of degradation"}, {"measurement": "inhibitory activity on tumor cell migration", "setting": "[4]", "result": "only very weak effects on tumor cell migration"}]}, {"smiles": "COC1C=CCCCCC(=O)OC(C(C)C)C(C)=CC(C)C1O", "note": "[Compound 68, (R)-Isopropyl Macrolactone]", "values": [{"measurement": "metabolic stability in mouse blood plasma", "setting": "[2]; mouse, plasma", "result": "no sign of degradation"}, {"measurement": "inhibitory activity on tumor cell migration", "setting": "[4]", "result": "only very weak effects on tumor cell migration"}]}, {"smiles": "CO[C@H]1/C=C/CCCCC(O)CC/C(C)=C\\[C@@H](C)[C@@H]1O", "note": "(stereo partly shown) [Compound 69, Macrocyclic Secondary Alcohol]", "values": [{"measurement": "ability to inhibit tumor cell migration", "setting": "[5]", "result": "rather weak migration inhibitors"}]}, {"smiles": "CO[C@H]1/C=C/CCCCC(C)(O)CC/C(C)=C\\[C@@H](C)[C@@H]1O", "note": "(stereo partly shown) [Compound 70, Macrocyclic Tertiary Alcohol]", "values": [{"measurement": "ability to inhibit tumor cell migration", "setting": "[5]", "result": "rather weak migration inhibitors"}]}, {"smiles": "CO[C@H]1/C=C/CCCCC(O)(C(F)(F)F)CC/C(C)=C\\[C@@H](C)[C@@H]1O", "note": "(stereo partly shown) [Compound 71, Macrocyclic CF3-Alcohol]", "values": [{"measurement": "ability to inhibit tumor cell migration", "setting": "[5]", "result": "displays the same activity profile as macroketone 60"}]}, {"smiles": "CO[C@H]1/C=C/CCCCC(=NO)CC/C(C)=C\\[C@@H](C)[C@@H]1O", "note": "[Compound 72, Macrooxime]", "values": [{"measurement": "ability to inhibit tumor cell migration", "setting": "[5]", "result": "rather weak migration inhibitors"}]}, {"smiles": "COC1C=CCCC=CC(=O)OC(C(C)C(=O)CCCC2CC(=O)N(C)C(=O)C2)C(C)=CC(C)C1O", "note": "(stereo not shown) [N-Methyl-migrastatin]", "values": [{"measurement": "Minimum effect concentration", "setting": "HUVEC", "result": 200, "unit": "µM"}, {"measurement": "Minimum effect concentration", "setting": "[3]", "result": 100, "unit": "µM"}]}]}
